Source: the supplement of paper PMC8671470

Tested on: ML-2
Test: cell viability (% survival relative to DMSO control, bortezomib = 0%); higher = less cytotoxic
Conditions: 1 nM; 72 h
How it was run: (§1)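 In 384-well plates pre-printed with compounds at 1, 10, 100, 1000 or 10000 nM, duplicate wells received cells from 10 AML and 5 CML lines at densities within the linear growth range. The plates stayed at 37 °C with 5% CO2 for 72 h before CellTiter-Glo luminescence was recorded. Each entry is averaged percent survival. Scaling placed vehicle at 100% and a 10 µM positive control at 0%.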

Compared with `O=C(NNc1ccccc1)c1ccncc1` [PluriSln 1], `O=C(O)c1cc(N=Nc2ccc(S(=O)(=O)Nc3ccccn3)cc2)ccc1O` [Sulfasalazine] is higher in cell viability: 93.3% for the first, 106% for the second.

First: CC(C)c1nc(CN(C)C(=O)N[C@H](C(=O)N[C@@H](Cc2ccccc2)C[C@H](O)[C@H](Cc2ccccc2)NC(=O)OCc2cncs2)C(C)C)cs1 [Ritonavir]
Second: Oc1ccc(Nc2nc(-c3ccc(Cl)cc3)cs2)cc1 [SKI II]
The cell viability of the first is higher: 94.2% for the first, 93.8% for the second.

`C=C(C)[C@H]1Cc2c(ccc3c2O[C@@H]2COc4cc(OC)c(OC)cc4[C@@H]2C3=O)O1` [Rotenone] was tested, and the cell viability was 94.4%.

Same assay, conditions: 10 nM; 72 h

Compared with `CCCCN1C[C@H](O)[C@@H](O)[C@H](O)[C@H]1CO` [Miglustat], `CCCCCCCCCCC[C@@H](C[C@@H]1OC(=O)[C@H]1CCCCCC)OC(=O)[C@H](CC(C)C)NC=O` [Orlistat] is lower in cell viability: 112% for the first, 101% for the second.

Going from `C=C(C=NNC(=N)N)NNC(=N)N` [Mitoguazone] to `O=C(NNc1ccccc1)c1ccncc1` [PluriSln 1], the cell viability falls from 104% to 97.6%.

Going from `CCCCC/C=C\C/C=C\C/C=C\C/C=C\CCCCN1C(=O)C=CC1=O` [N-Arachidonylmaleimide] to `COc1cc(/C=C/C(=O)N2CCC=CC2=O)cc(OC)c1OC` [Piperlongumine], the cell viability rises from 97.1% to 100%.

First: COc1ccc(C(=O)Nc2c(Cl)cncc2Cl)cc1OC1CCCC1 [Piclamilast]
Second: C=C(C)[C@H]1Cc2c(ccc3c2O[C@@H]2COc4cc(OC)c(OC)cc4[C@@H]2C3=O)O1 [Rotenone]
The cell viability of the first is higher: 104% for the first, 94.1% for the second.

Going from `CC(C)c1nc(CN(C)C(=O)N[C@H](C(=O)N[C@@H](Cc2ccccc2)C[C@H](O)[C@H](Cc2ccccc2)NC(=O)OCc2cncs2)C(C)C)cs1` [Ritonavir] to `O=C(O)c1cc(N=Nc2ccc(S(=O)(=O)Nc3ccccn3)cc2)ccc1O` [Sulfasalazine], the cell viability falls from 94.2% to 87.4%.

`Oc1ccc(Nc2nc(-c3ccc(Cl)cc3)cs2)cc1` [SKI II] showed a cell viability of 97.2%.

Same assay, conditions: 100 nM; 72 h

Compared with `CCCCN1C[C@H](O)[C@@H](O)[C@H](O)[C@H]1CO` [Miglustat], `CCCCCCCCCCC[C@@H](C[C@@H]1OC(=O)[C@H]1CCCCCC)OC(=O)[C@H](CC(C)C)NC=O` [Orlistat] is higher in cell viability: 86.5% for the first, 93.6% for the second.

First: C=C(C=NNC(=N)N)NNC(=N)N [Mitoguazone]
Second: O=C(NNc1ccccc1)c1ccncc1 [PluriSln 1]
The cell viability of the first is higher: 100% for the first, 92.8% for the second.

Compared with `CCCCC/C=C\C/C=C\C/C=C\C/C=C\CCCCN1C(=O)C=CC1=O` [N-Arachidonylmaleimide], `COc1cc(/C=C/C(=O)N2CCC=CC2=O)cc(OC)c1OC` [Piperlongumine] is lower in cell viability: 96.6% for the first, 92.8% for the second.

Compared with `COc1ccc(C(=O)Nc2c(Cl)cncc2Cl)cc1OC1CCCC1` [Piclamilast], `C=C(C)[C@H]1Cc2c(ccc3c2O[C@@H]2COc4cc(OC)c(OC)cc4[C@@H]2C3=O)O1` [Rotenone] is lower in cell viability: 102% for the first, 97.1% for the second.

First: CC(C)c1nc(CN(C)C(=O)N[C@H](C(=O)N[C@@H](Cc2ccccc2)C[C@H](O)[C@H](Cc2ccccc2)NC(=O)OCc2cncs2)C(C)C)cs1 [Ritonavir]
Second: O=C(O)c1cc(N=Nc2ccc(S(=O)(=O)Nc3ccccn3)cc2)ccc1O [Sulfasalazine]
The cell viability of the first is lower: 108% for the first, 118% for the second.

`Oc1ccc(Nc2nc(-c3ccc(Cl)cc3)cs2)cc1` [SKI II] showed a cell viability of 99.3%.

Same assay, conditions: 1000 nM; 72 h

Compared with `CCCCN1C[C@H](O)[C@@H](O)[C@H](O)[C@H]1CO` [Miglustat], `CCCCCCCCCCC[C@@H](C[C@@H]1OC(=O)[C@H]1CCCCCC)OC(=O)[C@H](CC(C)C)NC=O` [Orlistat] is lower in cell viability: 101% for the first, 88.6% for the second.

First: C=C(C=NNC(=N)N)NNC(=N)N [Mitoguazone]
Second: O=C(NNc1ccccc1)c1ccncc1 [PluriSln 1]
The cell viability of the first is lower: 56.6% for the first, 103% for the second.

Going from `CCCCC/C=C\C/C=C\C/C=C\C/C=C\CCCCN1C(=O)C=CC1=O` [N-Arachidonylmaleimide] to `COc1cc(/C=C/C(=O)N2CCC=CC2=O)cc(OC)c1OC` [Piperlongumine], the cell viability falls from 94.3% to 72.6%.

Compared with `COc1ccc(C(=O)Nc2c(Cl)cncc2Cl)cc1OC1CCCC1` [Piclamilast], `C=C(C)[C@H]1Cc2c(ccc3c2O[C@@H]2COc4cc(OC)c(OC)cc4[C@@H]2C3=O)O1` [Rotenone] is lower in cell viability: 88.2% for the first, 1.51% for the second.

Going from `CC(C)c1nc(CN(C)C(=O)N[C@H](C(=O)N[C@@H](Cc2ccccc2)C[C@H](O)[C@H](Cc2ccccc2)NC(=O)OCc2cncs2)C(C)C)cs1` [Ritonavir] to `O=C(O)c1cc(N=Nc2ccc(S(=O)(=O)Nc3ccccn3)cc2)ccc1O` [Sulfasalazine], the cell viability rises from 83.5% to 112%.

Work on `Oc1ccc(Nc2nc(-c3ccc(Cl)cc3)cs2)cc1` [SKI II] yielded a cell viability of 89.7%.

Same assay, conditions: 10000 nM; 72 h

Compared with `CCCCN1C[C@H](O)[C@@H](O)[C@H](O)[C@H]1CO` [Miglustat], `CCCCCCCCCCC[C@@H](C[C@@H]1OC(=O)[C@H]1CCCCCC)OC(=O)[C@H](CC(C)C)NC=O` [Orlistat] is lower in cell viability: 94.9% for the first, 86% for the second.

Compared with `C=C(C=NNC(=N)N)NNC(=N)N` [Mitoguazone], `O=C(NNc1ccccc1)c1ccncc1` [PluriSln 1] is higher in cell viability: 24.7% for the first, 81% for the second.

Compared with `CCCCC/C=C\C/C=C\C/C=C\C/C=C\CCCCN1C(=O)C=CC1=O` [N-Arachidonylmaleimide], `COc1cc(/C=C/C(=O)N2CCC=CC2=O)cc(OC)c1OC` [Piperlongumine] is lower in cell viability: 91% for the first, -0.133% for the second.

Going from `COc1ccc(C(=O)Nc2c(Cl)cncc2Cl)cc1OC1CCCC1` [Piclamilast] to `C=C(C)[C@H]1Cc2c(ccc3c2O[C@@H]2COc4cc(OC)c(OC)cc4[C@@H]2C3=O)O1` [Rotenone], the cell viability falls from 110% to 3.18%.

Going from `CC(C)c1nc(CN(C)C(=O)N[C@H](C(=O)N[C@@H](Cc2ccccc2)C[C@H](O)[C@H](Cc2ccccc2)NC(=O)OCc2cncs2)C(C)C)cs1` [Ritonavir] to `O=C(O)c1cc(N=Nc2ccc(S(=O)(=O)Nc3ccccn3)cc2)ccc1O` [Sulfasalazine], the cell viability rises from 64.4% to 102%.

`Oc1ccc(Nc2nc(-c3ccc(Cl)cc3)cs2)cc1` [SKI II] gave a cell viability of 44%.

Tested on: MOLM-13
Test: as above
Conditions: 1 nM; 72 h
How it was run: as §1

Going from `CCCCN1C[C@H](O)[C@@H](O)[C@H](O)[C@H]1CO` [Miglustat] to `CCCCCCCCCCC[C@@H](C[C@@H]1OC(=O)[C@H]1CCCCCC)OC(=O)[C@H](CC(C)C)NC=O` [Orlistat], the cell viability rises from 90% to 140%.

Going from `C=C(C=NNC(=N)N)NNC(=N)N` [Mitoguazone] to `O=C(NNc1ccccc1)c1ccncc1` [PluriSln 1], the cell viability falls from 93.7% to 80.5%.

Compared with `CCCCC/C=C\C/C=C\C/C=C\C/C=C\CCCCN1C(=O)C=CC1=O` [N-Arachidonylmaleimide], `COc1cc(/C=C/C(=O)N2CCC=CC2=O)cc(OC)c1OC` [Piperlongumine] is lower in cell viability: 98.8% for the first, 98.6% for the second.

First: COc1ccc(C(=O)Nc2c(Cl)cncc2Cl)cc1OC1CCCC1 [Piclamilast]
Second: C=C(C)[C@H]1Cc2c(ccc3c2O[C@@H]2COc4cc(OC)c(OC)cc4[C@@H]2C3=O)O1 [Rotenone]
The cell viability of the first is lower: 89.2% for the first, 103% for the second.

Compared with `CC(C)c1nc(CN(C)C(=O)N[C@H](C(=O)N[C@@H](Cc2ccccc2)C[C@H](O)[C@H](Cc2ccccc2)NC(=O)OCc2cncs2)C(C)C)cs1` [Ritonavir], `O=C(O)c1cc(N=Nc2ccc(S(=O)(=O)Nc3ccccn3)cc2)ccc1O` [Sulfasalazine] is higher in cell viability: 104% for the first, 105% for the second.

For `Oc1ccc(Nc2nc(-c3ccc(Cl)cc3)cs2)cc1` [SKI II], the cell viability was 80%.

Same assay, conditions: 10 nM; 72 h

`CCCCN1C[C@H](O)[C@@H](O)[C@H](O)[C@H]1CO` [Miglustat] showed a cell viability of 102%.
